The record followed here is ChEMBL document CHEMBL1131868, “Alpha-trifluoromethylated acyloins induce apoptosis in human oral tumor cell lines” (1999).

What all share (type): functional
A short description of test [1]: In vitro cytotoxic activity against human salivary gland tumor (HSG) cells.
Test [2] can be described thus: In vitro cytotoxic activity against human squamous cell carcinoma (HSC-2) cells.
The nature of test [3]: In vitro cytotoxic activity against human gingival fibroblasts (HGF).

Structures can show the parent of a compound that is named as a salt.

Consider `CCCCCCC(=O)C(O)C(F)(F)F` (centres undefined), for which the CC50 in test [1] came out at 220 µM; in test [2], 90 µM; in test [3], 790 µM.

On to `OC(c1ccccc1)C(F)(F)F` (centres undefined), for which the figures for the 50% cytotoxic concentration (CC50) in test [1], in test [2] and in test [3] were 2100 µM, 1100 µM and 2200 µM, respectively.

As to `O=C(OC1c2ccccc2-c2ccccc21)N1C=C(C(=O)C(F)(F)F)CC1`, the CC50 in test [1] amounted to 180 µM; in test [2], 140 µM; in test [3], 230 µM.

For the compound `O=C(c1ccc[nH]1)C(F)(F)F`, the CC50 in test [1] was found to be 1800 µM; in test [2] it was 870 µM; in test [3], 2100 µM.

As for `O=C(C(=O)C(F)(F)F)c1ccccc1`, the CC50 was 390 µM in test [1], 79 µM in test [2] and 510 µM in test [3].

With `COC(=O)CC(=O)C(F)(F)F`, the 50% cytotoxic concentration (CC50) is 1800 µM in test [1], 1300 µM in test [2] and > 2900 µM in test [3].

As for `O=C(Cc1nc2ccccc2o1)C(F)(F)F`, the results for the CC50 in test [1], in test [2] and in test [3] were 79 µM, 43 µM and 630 µM, respectively.

In the case of `O=C(Cc1nc2ccccc2[nH]1)C(F)(F)F`, the CC50 came to 340 µM in test [1], 53 µM in test [2] and 200 µM in test [3].

Consider `C=CCOC(=O)N1C=C(C(=O)C(F)(F)F)CC1`, for which the cytotoxic concentration (CC50) amounted to 240 µM in test [1], 110 µM in test [2] and 140 µM in test [3].

Regarding `O=C(Cc1nc2ccccc2s1)C(F)(F)F`, the CC50 stood at 390 µM in test [1], 150 µM in test [2] and 430 µM in test [3].

For the compound `O=C(Cc1ccccn1)C(F)(F)F`, the CC50 in test [1] was determined as 1600 µM; in test [2] it was 620 µM; in test [3], 2100 µM.

In the case of `O=C(c1ccccc1)C(O)C(F)(F)F` (centres undefined), the CC50 in test [1] turned out to be 240 µM; in test [2], 36 µM; in test [3], 1300 µM.

In test [2], `COc1cccc2c1C(=O)c1c(O)c3c(c(O)c1C2=O)C[C@@](O)(C(=O)CO)C[C@@H]3O[C@H]1C[C@H](N)[C@H](O)[C@H](C)O1` [DOXORUBICIN HYDROCHLORIDE] displayed a 50% cytotoxic concentration (CC50) of 4.1 µM.

In the case of `O=C(CC(O)C(F)(F)F)c1ccccc1` (centres undefined), the CC50 stood at 1500 µM in test [1], 240 µM in test [2] and 1700 µM in test [3].

Consider `O=C(Cc1ccccc1)C(O)C(F)(F)F` (centres undefined), for which the CC50 was found to be 110 µM in test [1], 22 µM in test [2] and 310 µM in test [3].

On to `Cc1nc(CC(=O)C(F)(F)F)oc1C`, for which the cytotoxic concentration (CC50) in test [1] was 150 µM; in test [2], < 68 µM; in test [3], 77 µM.

As to `CC(=O)C(O)c1ccccc1` (centres undefined), the results for the CC50 in test [1], in test [2] and in test [3] were 2900 µM, 1700 µM and 3200 µM, respectively.

Turning to `O=C(NCCCC(=O)C(O)C(F)(F)F)c1ccccc1` (centres undefined), the half-maximal cytotoxic concentration (CC50) in test [1] is 400 µM; in test [2], 31 µM; in test [3], 420 µM.

Regarding `O=C(Oc1ccccc1)N1C=C(C(=O)C(F)(F)F)CC1`, the CC50 in test [1] is 270 µM; in test [2], 230 µM; in test [3] it was 620 µM.

Take `CC(=O)CC(=O)C(F)(F)F`: the CC50 is 3200 µM in test [1], 2500 µM in test [2] and > 3200 µM in test [3].

As to `OC(Cc1ccccc1)C(F)(F)F` (centres undefined), the CC50 in test [1] came to 1300 µM; in test [2], 460 µM; in test [3] it was 1700 µM.

On to `O=C(Cc1ccccc1)C(F)(F)F`, for which the results for the CC50 in test [1], in test [2] and in test [3] were 1600 µM, 1400 µM and 2200 µM, respectively.

As to `O=C(c1c[nH]c2ccccc12)C(F)(F)F`, the CC50 in test [1] stood at 1300 µM; in test [2], 94 µM; in test [3], 2000 µM.

With `O=C(c1ccccc1)C(F)(F)F`, the CC50 was 2700 µM in test [1], > 2900 µM in test [2] and > 2900 µM in test [3].

Consider `O=C(c1nc2ccccc2o1)C(F)(F)F`, for which the values for the CC50 in test [1], in test [2] and in test [3] were 1700 µM, 580 µM and 2200 µM, respectively.

With `O=C(CC(=O)C(F)(F)F)c1ccccc1`, the CC50 amounted to 420 µM in test [1], 150 µM in test [2] and 1400 µM in test [3].

As to `O=C(c1cccs1)C(F)(F)F`, the CC50 is 2700 µM in test [1], 1900 µM in test [2] and > 2800 µM in test [3].

As usually defined, the CC50 is the concentration giving 50% cytotoxicity.
